Laboratory results as given in patent US10568827B2, “External dermal agent for reducing yellowish dullness” (Hayashibara Co., Ltd., priority 2015, dated 2020).

Target: carbonyl BSA (Bos taurus, UniProt P02769)
Assay: Carbonyl protein reduction test with carbonyl BSA model (OxyBlot dot blot)
Type: biochemical, bovine
Conditions: for action of reducing carbonyl protein (carbonyl BSA): conclusion in words
Description: A carbonyl protein, obtained by carbonylating bovine serum albumin (termed “BSA”, hereinafter), was prepared as a carbonyl protein model (termed “carbonyl BSA”, hereinafter) and used in this experiment.
In phosphate buffered saline (termed “PBS (-)”, hereinafter) containing 100 μM of sodium hypochlorite as a carbonyl initiator was dissolved BSA to give a final concentration of 40 mg/mL, followed by keeping the resulting solution at 37° C. overnight to form carbonyl BSA, as a carbonyl protein model, used as a substance to cause skin yellowness, and removing the remaining sodium hypochlorite with “AMICON ULTRA 10K”, a product name of ultrafiltration membrane, commercialized by Merck Millipore Corporation, Tokyo, Japan, to obtain a carbonyl BSA. In this experiment, the carbonyl BSA was used as a carbonyl protein model.
Based on Western blot analysis, the concentration of carbonyl BSA was assayed with dot blot method using a kit, “OxyBlot™ Protein Oxidation Detection Kit”, a product name of a kit for analyzing the oxidation level of protein, commercialized by Merck Millipore Corporation, Tokyo, Japan. The resulting measured values (emission intensity) were analyzed with “Image J”, an image processing software explored by National Institutes of Health (NIH), Maryland, USA. While, a PBS (-) solution (called “control”, hereinafter) containing carbonyl BSA, obtained similarly as in the above except for not using any of the test samples, was similarly measured as in the above, followed by determining the ratios of the measured values for those with the test samples against that of control. The results are in Table 1 and FIG. 1. […] The numerals in the table respectively show the ratios of carbonyl BSA when the test samples were respectively used alone against the measured value of carbonyl BSA, regarded as 1, for Control with no addition of any of the test samples.
The results are respectively in Tables 2 and 3 and FIGS. 2 and 3. The numerals with no symbol “%” in each table show ratios of carbonyl BSA obtained in such a manner of calculating the amount of carbonyl BSA for the system with either or both of the test samples that were respectively used alone or used in combination while regarding as one the amount of carbonyl BSA in each control system with no addition of any of the compositions containing glycosyl hesperetin or glycosyl naringenin.
Except for using any one of mannose, N-acetylglucosamine, “MALTOSE HHH” as a product name of maltose, raffinose, maltotetraose, and “TORNARE®” as a product name of glycosyl trehalose used as a cosmetic base material, which are shown in Table 4 below, in place of the composition containing glycosyl naringenin and the ascorbic acid 2-glucoside used in the above (4), and preparing it into a solution containing 0.1 w/v % of any of the above saccharide for use as a test solution for carbonyl protein reduction test, it was examined the carbonyl protein reduction action of the combination use the composition containing glycosyl hesperetin and any one of the above-identified saccharides similarly as in the above (4).
This experiment was conducted with organic acids and amino acids, which were focused on as compounds to be used with the composition containing glycosyl hesperetin.

[1] = test—2 (Table 5), single use 0.1 w/v %, Control = 1
[2] = test—2, combination use of composition containing glycosyl hesperetin (0.1 w/v %) and the labelled saccharide (0.1 w/v %)
[3] = test—3, composition containing glycosyl hesperetin (0.1 w/v %) in combination with the labelled organic acid or amino acid (0.1 w/v % as headed)
[4] = test—3, sole use of organic acid or amino acid (0.1 w/v % as headed), Control = 1
[5] = sole use test, test sample 0.1 w/v %, carbonyl BSA:test sample 1:1 by mass, 37° C., 16 hours, Control (no addition) = 1

carbonyl BSA, sequence (P02769 25-607): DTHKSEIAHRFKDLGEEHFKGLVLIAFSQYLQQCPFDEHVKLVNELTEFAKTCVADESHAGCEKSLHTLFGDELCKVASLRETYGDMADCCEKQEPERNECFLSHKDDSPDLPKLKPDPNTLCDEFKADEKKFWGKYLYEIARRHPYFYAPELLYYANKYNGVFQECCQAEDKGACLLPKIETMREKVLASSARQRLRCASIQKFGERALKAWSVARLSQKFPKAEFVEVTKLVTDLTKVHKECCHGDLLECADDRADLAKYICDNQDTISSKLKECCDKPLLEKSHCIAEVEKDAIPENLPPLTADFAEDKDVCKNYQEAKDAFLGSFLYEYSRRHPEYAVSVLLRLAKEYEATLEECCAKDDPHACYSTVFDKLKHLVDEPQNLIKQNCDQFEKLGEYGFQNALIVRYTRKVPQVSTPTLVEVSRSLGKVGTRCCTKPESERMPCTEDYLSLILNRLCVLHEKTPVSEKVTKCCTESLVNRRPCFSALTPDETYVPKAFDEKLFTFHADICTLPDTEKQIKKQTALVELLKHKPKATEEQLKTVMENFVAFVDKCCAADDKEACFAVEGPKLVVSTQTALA

Row | Ratio of carbonyl BSA [3] | Ratio of carbonyl BSA [4] | Structure (SMILES) | also measured
1 | – | – | OC[C@H]1O[C@H](O[C@H]2[C@H](O)[C@@H](O)C(O)O[C@@H]2CO)[C@H](O)[C@@H](O)[C@@H]1O (mixture of isomers) [Maltose, maltose] | Ratio of carbonyl BSA [1]: 0.18; Ratio of carbonyl BSA [2]: 0.11
2 | 0.35 | 0.89 | CC(O)C(=O)O (stereo not drawn) [A, lactic acid] | –
3 | 0.51 | 0.95 | O=C(O)C(O)C(O)C(=O)O (stereo not drawn) [B, tartaric acid] | –
4 | 0.52 | 0.96 | O=C(O)CC(O)(CC(=O)O)C(=O)O [C, citric acid] | –
5 | 0.35 | 0.82 | COc1cc(/C=C/C(=O)O)ccc1O [E, ferulic acid] | –
6 | 0.16 | 1.01 | O=C[C@H](O)[C@@H](O)[C@H](O)[C@H](O)C(=O)O [F, glucuronic acid] | –
7 | 0.49 | 1.07 | O=C[C@H](O)[C@H]1OC(=O)[C@@H](O)[C@H]1O [G, glucuronolactone] | –
8 | – | – | N[C@@H](CCC(=O)N[C@@H](CS)C(=O)NCC(=O)O)C(=O)O [Glutathione (reduced form), reduced glutathione, reference compound] | action of reducing carbonyl protein (carbonyl BSA): no action of reducing carbonyl protein; Ratio of carbonyl BSA [5]: 1.19
9 | 0.25 | 1.08 | CC(=O)O [H, acetic acid] | –
10 | 0.26 | 1.04 | C/C=C/C=C/C(=O)O [I, sorbic acid] | –
11 | 0.32 | 0.71 | NCC(=O)O [K, glycine] | –
12 | 0.28 | 0.77 | N[C@@H](CCC(=O)[O-])C(=O)[O-].[Na+].[Na+] [L, sodium glutamate] | –
13 | – | – | O=C1O[C@H]([C@@H](O)CO)C(O)=C1O[C@H]1O[C@H](CO)[C@@H](O)[C@H](O)[C@H]1O [L-Ascorbic acid 2-glucoside, L-ascorbic acid 2-glucoside, reference compound] | Ratio of carbonyl BSA [5]: 0.73; Ratio of carbonyl BSA (test—1 (Tables 2, 3), single use, with no addition of the other ingredient, test sample 0.1 w/v %, Control = 1): 0.70
14 | – | – | OC[C@H]1O[C@H](O[C@H]2[C@H](O)[C@@H](O)[C@@H](O[C@H]3[C@H](O)[C@@H](O)[C@@H](O[C@H]4[C@H](O)[C@@H](O)C(O)O[C@@H]4CO)O[C@@H]3CO)O[C@@H]2CO)[C@H](O)[C@@H](O)[C@@H]1O (stereo partly drawn) [Maltotetraose, maltotetraose] | Ratio of carbonyl BSA [1]: 0.71; Ratio of carbonyl BSA [2]: 0.13
15 | – | – | CC(=O)N[C@H]1C(O)O[C@H](CO)[C@@H](O)[C@@H]1O (stereo partly drawn) [N-Acetyl glucosamine] | Ratio of carbonyl BSA [1]: 0.48; Ratio of carbonyl BSA [2]: 0.79
16 | – | – | NC(=O)c1cccnc1 [Niacinamide, niacinamide, reference compound] | action of reducing carbonyl protein (carbonyl BSA): no action of reducing carbonyl protein; Ratio of carbonyl BSA [5]: 1.05
17 | – | – | OC[C@H]1O[C@H](OC[C@H]2O[C@H](O[C@]3(CO)O[C@H](CO)[C@@H](O)[C@@H]3O)[C@H](O)[C@@H](O)[C@@H]2O)[C@H](O)[C@@H](O)[C@H]1O [Raffinose, raffinose] | Ratio of carbonyl BSA [1]: 0.23; Ratio of carbonyl BSA [2]: 0.54

Row | Structure (SMILES) | Ratio of carbonyl BSA [3] | Ratio of carbonyl BSA [4] | also measured
18 | O=C(O)c1ccccc1 [J, benzoic acid] | 0.44 | 0.95 | –
